Source: patent US20240158446A1, “CYCLIC COMPOUND HAVING SELECTIVE INHIBITORY ACTION ON KRAS OVER HRAS AND NRAS” (CHUGAI SEIYAKU KABUSHIKI KAISHA, priority 2021, published 2024)
Where two headings read alike, the source gives them in different places. Where a SMILES comes first, the peptide text is derived from it. Bridges are numbered along the chain shown (N, C = ends). [ ]: non-standard residue; d: D form. The star is where a group is joined. hPhe(3,5-F2-4-CF3) = N[C@@H](CCc1cc(F)c(C(F)(F)F)c(F)c1)C(=O)O; hPhe(3-Cl-4-CF3) = N[C@@H](CCc1ccc(C(F)(F)F)c(Cl)c1)C(=O)O; NPrPhe(4-CF3) = CCCN[C@@H](Cc1ccc(C(F)(F)F)cc1)C(=O)O; NEtPhe(4-Me) = CCN[C@@H](Cc1ccc(C)cc1)C(=O)O; NMeGly(cPent) = CN[C@H](C(=O)O)C1CCCC1; NMeD = CN[C@@H](CC(=O)O)C(=O)O; NMeL = CN[C@@H](CC(C)C)C(=O)O; αMeS = C[C@](N)(CO)C(=O)O; Morpholide = C1CN(*)CCO1; Ac5c = NC1(C(=O)O)CCCC1; Aze = O=C(O)[C@@H]1CCN1; NcPrGly = O=C(O)CNC1CC1; NEtG = CCNCC(=O)O; Sar = CNCC(=O)O; tBu = CC(C)(C)*

Columns and labels:
[1] = biological target: GDP-bound HRAS wild-type protein (Homo sapiens, UniProt P01112); assay: Binding to HRAS by surface plasmon resonance (SPR), Single Cycle Kinetics; settings: for HRAS/KRAS (ratio of KD value with respect to GDP-bound HRAS wild-type protein to KD value with respect to KRAS): SPR KD ratio HRAS/KRAS, class symbols; for HRAS/KRAS (ratio of KD value for HRAS to KD value for KRAS) / HRAS/KRAS (ratio of KD value with respect to HRAS to KD value with respect to KRAS): SPR, GDP-bound HRAS wild-type protein vs GDP-bound KRAS wild-type protein
[2] = biological target: GDP-bound NRAS wild-type protein (Homo sapiens, UniProt P01111); assay: Binding to NRAS by surface plasmon resonance (SPR), Single Cycle Kinetics; settings: for NRAS/KRAS (ratio of KD value with respect to GDP-bound NRAS wild-type protein to KD value with respect to KRAS): SPR KD ratio NRAS/KRAS, class symbols; for NRAS/KRAS (ratio of KD value for NRAS to KD value for KRAS) / NRAS/KRAS (ratio of KD value with respect to NRAS to KD value with respect to KRAS): SPR, GDP-bound NRAS wild-type protein vs GDP-bound KRAS wild-type protein
[3] = biological target: GDP-bound KRAS wild-type protein (Homo sapiens, UniProt P01116); assay: Binding to KRAS by surface plasmon resonance (SPR), Single Cycle Kinetics; settings: GDP-bound KRAS wild-type protein, read-out: KRAS KD
[4] = SPR Single Cycle Kinetics, 1:1 binding model

Sequence of GDP-bound NRAS wild-type protein (P01111 whole entry): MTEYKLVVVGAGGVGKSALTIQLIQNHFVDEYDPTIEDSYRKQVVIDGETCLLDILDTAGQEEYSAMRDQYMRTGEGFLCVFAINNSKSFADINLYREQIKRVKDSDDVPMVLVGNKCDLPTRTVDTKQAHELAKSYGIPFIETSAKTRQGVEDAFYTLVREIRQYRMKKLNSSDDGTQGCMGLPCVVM
Sequence of GDP-bound KRAS wild-type protein (P01116 whole entry): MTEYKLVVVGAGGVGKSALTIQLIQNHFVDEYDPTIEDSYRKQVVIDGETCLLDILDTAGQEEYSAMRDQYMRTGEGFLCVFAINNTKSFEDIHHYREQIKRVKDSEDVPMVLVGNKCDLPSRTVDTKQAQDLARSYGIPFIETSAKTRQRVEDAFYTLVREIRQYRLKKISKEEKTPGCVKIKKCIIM
Sequence of GDP-bound HRAS wild-type protein (P01112 whole entry): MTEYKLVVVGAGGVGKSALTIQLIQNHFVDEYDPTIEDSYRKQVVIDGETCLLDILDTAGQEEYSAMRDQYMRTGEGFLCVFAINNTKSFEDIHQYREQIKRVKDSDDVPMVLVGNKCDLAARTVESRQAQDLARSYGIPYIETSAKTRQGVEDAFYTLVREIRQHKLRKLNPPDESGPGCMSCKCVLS

| SMILES | HRAS/KRAS (ratio of KD value with respect to GDP-bound HRAS wild-type protein to KD value with respect to KRAS) [1] | NRAS/KRAS (ratio of KD value with respect to GDP-bound NRAS wild-type protein to KD value with respect to KRAS) [2] | Kd [3, 4] [nM] | HRAS/KRAS (ratio of KD value for HRAS to KD value for KRAS) [1] | NRAS/KRAS (ratio of KD value for NRAS to KD value for KRAS) [2] | Kd ([3]; SPR, Single Cycle Kinetics) [nM] | HRAS/KRAS (ratio of KD value with respect to HRAS to KD value with respect to KRAS) [1] | NRAS/KRAS (ratio of KD value with respect to NRAS to KD value with respect to KRAS) [2] |
| --- | --- | --- | --- | --- | --- | --- | --- | --- |
| CCC(CC)[C@H]1C(=O)N(C)[C@H](C(=O)N(C)C)CC(=O)N(C)[C@@H](COC)C(=O)N[C@@H]([C@@H](C)CC)C(=O)N(C)CC(=O)N(C)[C@H]2C/C=C\CCN(C2=O)[C@@H](Cc2ccc(C)cc2)C(=O)N(C)CC(=O)N[C@@H](CCc2ccc(Cl)c(Cl)c2)C(=O)N2C[C@H](OC3CCCC3)C[C@H]2C(=O)N(C)C2(CC(C)(C)C2)C(=O)N1C [PP2818] | A (a compound having 10 or more and less than 20 is denoted as A) | A (a compound having 10 or more and less than 20 is denoted as A) | 0.88 | – | – | – | – | – |
| CCO[C@@H]1C[C@H]2C(=O)NC3(CC(C)(C)C3)C(=O)N(C)[C@@H](C3CCCC3)C(=O)N(C)[C@H](C(=O)N(C)C)CC(=O)N(C)[C@@H](CC)C(=O)N[C@@H]([C@@H](C)CC)C(=O)N(C)CC(=O)N(C)[C@H]3C/C=C\CCN(C3=O)[C@@H](Cc3ccc(C(F)F)cc3)C(=O)N(C)CC(=O)N[C@@H](CCc3cc(F)c(C(F)(F)F)c(F)c3)C(=O)N2C1 [PP2049] | – | – | – | B (a compound having 3 or more and less than 10 is denoted as B) | A (a compound having 10 or more and less than 20 is denoted as A) | 0.04 | – | – |
| CCCN1C(=O)[C@@H]2CCN2C(=O)CN(C2CC2)C(=O)[C@H]([C@@H](C)CC)NC(=O)[C@H](CC(C)C)N(C)C(=O)C[C@@H](C(=O)N2CCOCC2)N(C)C(=O)[C@H](C2CCCC2)N(C)C(=O)C2(CCCC2)NC(=O)[C@@H]2CCCN2C(=O)[C@H](CCc2ccc(C(F)(F)F)c(Cl)c2)NC(=O)CN(C)C(=O)[C@@H]1Cc1ccc(C(F)(F)F)cc1 [PP0273] ([NMeL]I[NcPrGly][Aze][NPrPhe(4-CF3)][Sar][hPhe(3-Cl-4-CF3)]P[Ac5c][NMeGly(cPent)][NMeD]-Morpholide; lactam N-11) | – | – | 0.56 | B (a compound having 3 or more and less than 10 is denoted as B) | C (A compound having a KD ratio of 0.1 or more and less than 3 is denoted as C) | – | – | – |
| CC[C@H](C)[C@@H]1NC(=O)[C@@H]2CCC/C=C/c3ccc(cc3)C[C@@H](C(=O)N(C)CC(=O)N[C@@H](CCc3ccc(Cl)c(Cl)c3)C(=O)N3C[C@H](OC4CCC4)C[C@H]3C(=O)NC3(CC(C)(C)C3)C(=O)N(C)[C@@H](C3CCCC3)C(=O)N(C)[C@H](C(=O)N3CCCC3)CC(=O)N2C)N2CC/C=C\C[C@@H](C2=O)N(C)C(=O)CN(C)C1=O [PP3053] | – | – | – | A (a compound having 10 or more and less than 20 is denoted as A) | A (a compound having 10 or more and less than 20 is denoted as A) | 0.16 | – | – |
| CC[C@H](C)[C@@H]1NC(=O)[C@H](CC(C)C)N(C)C(=O)C[C@@H](C(=O)N2CCOCC2)N(C)C(=O)[C@H](C2CCCC2)N(C)C(=O)C2(CCCC2)NC(=O)[C@@H]2CCCN2C(=O)[C@H](CCc2ccc(C(F)(F)F)c(Cl)c2)NC(=O)CN(C)C(=O)[C@H](Cc2ccc(C)cc2)N(CC)C(=O)CN(CC)C(=O)CN(C)C1=O [PP0027] ([NMeL]I[Sar][NEtG][NEtPhe(4-Me)][Sar][hPhe(3-Cl-4-CF3)]P[Ac5c][NMeGly(cPent)][NMeD]-Morpholide; lactam N-11) | – | – | 0.8 | C (A compound having a KD ratio of 0.1 or more and less than 3 is denoted as C) | C (A compound having a KD ratio of 0.1 or more and less than 3 is denoted as C) | – | – | – |
| CC[C@H](C)[C@@H]1NC(=O)[C@H](CC(C)C)N(C)C(=O)C[C@@H](C(=O)N2CCOCC2)N(C)C(=O)[C@H](C2CCCC2)N(C)C(=O)C2(CCCC2)NC(=O)[C@@H]2CCCN2C(=O)[C@H](CCc2ccc(C(F)(F)F)c(Cl)c2)NC(=O)CN(C)C(=O)[C@H](Cc2ccc(OC(F)(F)F)cc2)N2CC=CC[C@@H](C2=O)N(C)C(=O)CN(C)C1=O [PP0537] | – | – | 5.8 | – | – | – | C (A compound having a KD ratio of 0.1 or more and less than 3 is denoted as C) | C (A compound having a KD ratio of 0.1 or more and less than 3 is denoted as C) |
| CCCOC[C@H]1C(=O)N[C@@H]([C@@H](C)CC)C(=O)N(C)CC(=O)N(C)[C@H]2C/C=C\CCN(C2=O)[C@@H](Cc2ccc(C(F)(F)F)cc2)C(=O)N(C)CC(=O)N[C@@H](CCc2ccc(C(F)(F)F)c(Cl)c2)C(=O)N2C[C@H](OCC)C[C@H]2C(=O)NC2(CCC2)C(=O)N(C)[C@@H](C2CCCC2)C(=O)N(C)[C@H](C(=O)N(C)CCC)CC(=O)N1C [PP2831] | A (a compound having 10 or more and less than 20 is denoted as A) | A (a compound having 10 or more and less than 20 is denoted as A) | 0.11 | – | – | – | – | – |
| CCC[C@H]1C(=O)N[C@@H]([C@@H](C)CC)C(=O)N(C)CC(=O)N(C)[C@H]2C/C=C\CCN(C2=O)[C@@H](Cc2ccc(C(F)(F)F)cc2)C(=O)N(C)CC(=O)N[C@@H](CCc2cc(F)c(C(F)(F)F)c(F)c2)C(=O)N2C[C@H](OCC)C[C@H]2C(=O)NC2(CCC2)C(=O)N(C)[C@@H](C2CCCC2)C(=O)N(C)[C@H](C(=O)N(C)C)CC(=O)N1C [PP1110, (2S,8S,12R,14S,20S,23S,27S,30S,36S,38Z)-20-cyclopentyl-8-[2-[3,5-difluoro-4-(trifluoromethyl)phenyl]ethyl]-12-ethoxy-N,N,4,19,22,26,32,35-octamethyl-30-[(1S)-1-methylpropyl]-3,6,9,15,18,21,25,28,31,34,42-undecaoxo-27-propyl-2-[[4-(trifluoromethyl)phenyl]methyl]spiro[1,4,7,10,16,19,22,26,29,32,35-undecazatricyclo[34.5.1.0^10,14]dotetracont-38-ene-17,1′-cyclobutane]-23-carboxamide] | – | – | – | B (a compound having 3 or more and less than 10 is denoted as B) | A (a compound having 10 or more and less than 20 is denoted as A) | 0.056 | – | – |
| CCCN1C(=O)[C@@H]2CCN2C(=O)CN(C)C(=O)[C@H]([C@@H](C)CC)NC(=O)[C@H](CC(C)C)N(C)C(=O)C[C@@H](C(=O)N2CCOCC2)N(C)C(=O)[C@H](C2CCCC2)N(C)C(=O)[C@](C)(COC(C)(C)C)NC(=O)[C@@H]2CCCN2C(=O)[C@H](CCc2cc(F)c(C(F)(F)F)c(F)c2)NC(=O)CN(C)C(=O)[C@@H]1Cc1ccc(C(F)(F)F)cc1 [PP0800] ([NMeL]I[Sar][Aze][NPrPhe(4-CF3)][Sar][hPhe(3,5-F2-4-CF3)]P[αMeS](tBu)[NMeGly(cPent)][NMeD]-Morpholide; lactam N-11) | – | – | 2.7 | – | – | – | B (a compound having 3 or more and less than 10 is denoted as B) | C (A compound having a KD ratio of 0.1 or more and less than 3 is denoted as C) |
| CCO[C@@H]1C[C@H]2C(=O)NC3(CC(C)(C)C3)C(=O)N(C)[C@@H](C(CC)CC)C(=O)N(C)[C@H](C(=O)N3CCCC3)CC(=O)N(C)[C@@H](CC)C(=O)N[C@@H]([C@@H](C)CC)C(=O)N(C)CC(=O)N(C)[C@H]3C/C=C\CCN(C3=O)[C@@H](Cc3ccc(C)cc3)C(=O)N(C)CC(=O)N[C@@H](CCc3cc(F)c(C(F)(F)F)c(F)c3)C(=O)N2C1 [PP2149] | – | – | – | A (a compound having 10 or more and less than 20 is denoted as A) | A (a compound having 10 or more and less than 20 is denoted as A) | 0.58 | – | – |
| CCO[C@H]1CCN2C(=O)[C@H](CCc3cc(F)c(C(F)(F)F)c(F)c3)NC(=O)CN(C)C(=O)[C@H](Cc3ccc(C(F)(F)F)cc3)N3CCCC[C@@H](C3=O)N(C)C(=O)CN(C)C(=O)[C@H]([C@@H](C)CC)NC(=O)[C@H](CC(C)C)N(C)C(=O)C[C@@H](C(=O)N3CCOCC3)N(C)C(=O)[C@H](C3CCCC3)N(C)C(=O)C3(CCC3)NC(=O)[C@H]12 [PP1076] | – | – | – | B (a compound having 3 or more and less than 10 is denoted as B) | B (a compound having 3 or more and less than 10 is denoted as B) | 0.068 | – | – |
| CC[C@H](C)[C@@H]1NC(=O)[C@H](C(C)C)N(C)C(=O)C[C@@H](C(=O)N(C)CC)N(C)C(=O)[C@H](C2CCCC2)N(C)C(=O)C2(CCC2)NC(=O)[C@@H]2C[C@H](C)CN2C(=O)[C@H](CCc2ccc(C(F)(F)F)c(OC)c2)NC(=O)CN(C)C(=O)[C@H](Cc2ccc(C(F)(F)F)cc2)N2CC/C=C\C[C@@H](C2=O)N(C)C(=O)CN(C)C1=O [PP2065] | – | – | – | B (a compound having 3 or more and less than 10 is denoted as B) | A (a compound having 10 or more and less than 20 is denoted as A) | 0.22 | – | – |
| CCCN1C(=O)CN(C)C(=O)CN(C)C(=O)[C@H]([C@@H](C)CC)NC(=O)[C@H](CC(C)C)N(C)C(=O)C[C@@H](C(=O)N2CCOCC2)N(C)C(=O)[C@H](C2CCCC2)N(C)C(=O)C2(CCCC2)NC(=O)[C@@H]2CCCN2C(=O)[C@H](CCc2cc(F)c(C(F)(F)F)c(F)c2)NC(=O)CN(C)C(=O)[C@@H]1Cc1ccc(C(F)(F)F)cc1 [PP0753] ([NMeL]I[Sar][Sar][NPrPhe(4-CF3)][Sar][hPhe(3,5-F2-4-CF3)]P[Ac5c][NMeGly(cPent)][NMeD]-Morpholide; lactam N-11) | – | – | 0.14 | – | – | – | C (A compound having a KD ratio of 0.1 or more and less than 3 is denoted as C) | B (a compound having 3 or more and less than 10 is denoted as B) |
